Measured values reported in patent US20110280865A1, “Ets-2 Biomarkers for Fibrotic Diseases and Uses Thereof” (THE OHIO STATE UNIVERSITY, priority 2009, published 2011).

Test system: ets-2 (WT/WT) and ets-2 (A72/A72) mice
Experiment: Bronchoalveolar lavage (BAL) cell differentials after intra-peritoneal bleomycin
Format: in vivo, mouse
Details: mean ± S.E.M.
Description: Mice: Transgenic mice harboring a point mutation in Ets2 [Ets2tmA720sh, referred to as Ets2 (A72/A72)] resulting in a threonine to alanine conversion at position 72 were used. Wild type littermates (FVB/N background) were used as controls.
Bleomycin studies: Male mice, aged 6-12 weeks, underwent intra-peritoneal (IP) injection. Briefly, mice were injected with 0.035 U bleomycin/g or PBS (vehicle control) on days 1, 4, 8, 11, 15, 18, 22, and 25. One week following the last injection, mice were sacrificed. Prior to removal, lungs were lavaged with 1.0 ml of PBS. Lungs were subsequently removed and inflated at 20 cm pressure. The left lobe of the lung was placed in 10% Formalin and prepared for immunohistochemical processing (Histotechniques, Powell, Ohio), and the right lobes were snap frozen in liquid nitrogen for RNA, collagen, and protein analyses.
Bronchoalveolar lavage (BAL) analysis: Following the bleomycin regimen (33 days), two instillations of 0.5 ml of PBS were performed, and the BAL fluid (BALF) was collected. The total number of cells isolated via BAL was calculated. BAL fluid was then centrifuged to pellet the cells, and the supernatant (BALF) was collected and stored for ELISA analyses. Cells were resuspended in 100 μl of PBS, cytospun on slides, stained, and analyzed under a microscope for cell differentials.

[1] = ets-2 (A72/A72) mice, n = 7, 0.035 U bleomycin/g IP
[2] = ets-2 (WT/WT) mice, n = 5, 0.035 U bleomycin/g IP

bleomycin
Alveolar Macrophages [1]: 6.8 ± 1.4 ×10^4 | Lymphocytes [1]: 0.7 ± 0.6 ×10^4 | Neutrophils [1]: 0.8 ± 0.6 ×10^4 | Total cells [1]: 8.3 ± 2.0 ×10^4 | Alveolar Macrophages [2]: 12.0 ± 2.3 $ ×10^4 | Lymphocytes [2]: 0 ×10^4 | Neutrophils [2]: 0 ×10^4 | Total cells [2]: 12.0 ± 2.3 # ×10^4
